Our source for the Ki and melting point values is patent US6914053B2, “Adenosine A3 receptor agonists” (CV Therapeutics, Inc., priority 2002, dated 2005).

Data set [1] has as its target T1, A3 AdoRs (Homo sapiens, UniProt P0DMS8).
T1 construct: expressed in transfected cells; host or cells: HEK-293 or CHO cells (HEK-A3 or CHO-A3), membranes
T1 sequence (P0DMS8 1-318): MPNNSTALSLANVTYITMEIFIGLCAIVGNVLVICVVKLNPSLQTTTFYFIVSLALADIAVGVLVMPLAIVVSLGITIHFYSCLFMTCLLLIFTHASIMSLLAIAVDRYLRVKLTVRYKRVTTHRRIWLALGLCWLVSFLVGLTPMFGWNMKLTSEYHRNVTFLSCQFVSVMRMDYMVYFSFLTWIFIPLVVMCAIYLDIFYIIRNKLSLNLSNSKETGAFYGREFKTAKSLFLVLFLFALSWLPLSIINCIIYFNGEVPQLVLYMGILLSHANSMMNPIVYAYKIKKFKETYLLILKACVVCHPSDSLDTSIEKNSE
In words: Radioligand binding competition with 125I-AB-MECA on membranes of transfected cells. To be noted: competition with 0.2 nM 125I-AB-MECA, membranes of HEK-A3 or CHO-A3, TEM buffer, 90 minutes. As to the method:
Stable transfection of HEK-293 or CHO cells. The cDNAs for human A1, A2A, A2B or A3 AdoRs were prepared by RT-PCR from total RNA of human cells or tissues and sequenced on both strands. The expression vector containing each of these cDNAs and a second vector containing a neomycin or puromycin-resistance gene were introduced to HEK-293 or CHO cells by Lipofectin-Plus (Life Technology). Colonies were selected by growing transfected cells in the presence of neomycin or puromycin. Stably transfected cells were maintained in Dulbecco's modified Eagle's medium (DMEM) or F-12 medium with 10% fetal bovine serum, 100 μg/ml penicillin, 100 μg/ml streptomycin and appropriate concentrations of neomycin or puromycin. These stably transfected cells were referred to as HEK-“AdoR” or CHO-“AdoR” depending on the receptors that they express. For example, cells that were transfected with A3 AdoRs were referred to as HEK-A3 or CHO-A3.
Membrane preparation. Monolayers of transfected cells were washed with phosphate buffered saline (PBS) and harvested in a buffer containing 10 mM HEPES (pH 7.4), 10 mM EDTA and protease inhibitors. The cells were homogenized in polytron for 1 minute at setting 4 and centrifuged at 29000 g for 15 minutes at 4° C. The cell pellets were washed with a buffer containing 10 mM HEPES (pH7.4), 1 mM EDTA and protease inhibitors, and were resuspended in the same buffer supplemented with 10% sucrose. Frozen aliquots were kept at −80° C.
Radioligand binding. The affinities of compounds for A1, A2A, A2B or A3 AdoRs were determined in competition studies using radioligands such as ^3H—CPX (A1 antagonist), or ^3H-CCPA (A1 agonist), ^3H-ZM214385 (A2A antagonist) or ^3H-CGS21680 (A2A agonist), ^3H-ZM214385 (A2B antagonist) or ^125I-AB-MECA (A3 agonist) and membranes of corresponding transfected cells. For example, to determine the affinity for A3 AdoRs, the competition assays were started by mixing 0.2 nM ^125I-AB-MECA with various concentrations of test compounds and 25 ug membrane proteins of HEK-A3 or CHO-A3 in TEM buffer (50 mM Tris, 1 mM EDTA and 10 mM MgCl2) supplemented with 1 U/ml adenosine deaminase. The assays were incubated for 90 minutes, stopped by filtration onto GF/B filter plates using Packard Harvester and washed four times with ice-cold TM buffer (10 mM Tris, 1 mM MgCl2, pH 7.4). The amounts of radioligands that bound to the GF/B filter plates were determined by scintillation counting. Nonspecific binding was determined in the presence of 10 μM R—PIA or 1 μM IB-MECA. Bmax and KD values were calculated using GraphPad software.

As to `CONc1nc(C#Cc2ccc(C)cc2)nc2c1ncn2[C@@H]1O[C@H](CO)[C@@H](O)[C@H]1O` [(4S,2R,3R,5R)-5-(hydroxymethyl)-2-[6-(methoxyamino)-2-[(2-(4-methylphenyl)ethynyl]-purin-9-yl]oxolane-3,4-diol], the affinity in data set [1], expressed as Ki, was 0.331 nM. The same measure, in the same setting: the figure for `CCCCC#Cc1nc(NOC)c2ncn([C@@H]3O[C@H](CO)[C@@H](O)[C@H]3O)c2n1` [(4S,2R,3R,5R)-2-{2-[2-hex-1-ynyl-6-methoxyamino)purin-9-yl}-5-(hydroxymethyl)oxolane-3,4-diol] is 0.681 nM. As for `CONc1nc(C#Cc2ccc(F)cc2)nc2c1ncn2[C@@H]1O[C@H](CO)[C@@H](O)[C@H]1O` [(4S,2R,3R,5R)-2-{2-[2-(4-fluorophenyl)ethynyl}-6-(methoxyamino)purin-9-yl}-5-(hydroxymethyl)oxolane-3,4-diol], the affinity in data set [1] corresponds to a Ki of 0.422 nM.

On to `CONc1nc(C#Cc2ccccc2)nc2c1ncn2[C@@H]1O[C@H](CO)[C@@H](O)[C@H]1O` [Example 6A, (4S,2R,3R,5R)-5-(hydroxymethyl)-2-[6-(methoxyamino)-2-(2-phenylethynyl)purin-9-yl]oxolane-3,4-diol], for which the melting point – broadly, the temperature of the solid-liquid transition – was 175 to 177 °C.

With `CCCCCc1ccc(C#Cc2nc(NOC)c3ncn([C@@H]4O[C@H](CO)[C@@H](O)[C@H]4O)c3n2)cc1` [(4S,2R,3R,5R)-5-hydroxymethyl)-2-{6-(methoxyamino-2-[2-(4-pentylphenylethynyl)]purin-9-yl}oxolane-3,4-diol], affinity in data set [1] was put at a Ki of 0.388 nM. That is a sub-nanomolar value.
